Test system: mice
Assay: Acute toxicity in oral administration to mice
Type: in vivo
From the text: The results of tests for an acute toxicity of the thus-obtained desired product when administered orally to mice are shown in the Table hereinbelow.
The results of tests of the thus-obtained desired product for an acute toxicity in oral administration to mice are shown in the Table hereinbelow.
Acute toxicity of 2,2'-di-(1,6,7-trihydroxy-3-methyl-
5-isopropyl-8-naphthaldehyde) in oral administration

SMILES	LD50
Cc1cc2c(C(C)C)c(O)c(O)c(C=O)c2c(O)c1-c1c(C)cc2c(C(C)C)c(O)c(O)c(C=O)c2c1O [Example 2, 2,2'-di-(1,6,7-trihydroxy-3-methyl-5-isopropyl-8-naphthaldehyde)]	over 1,500 mg/kg
Cc1cc2c(C(C)C)c(O)c(O)c(C=O)c2c(O)c1-c1c(C)cc2c(C(C)C)c(O)c(O)c(C=O)c2c1O [Example 3, 2,2'-di-(1,6,7-trihydroxy-3-methyl-5-isopropyl-8-naphthaldehyde)]	750 (646-870) mg/kg
Cc1cc2c(C(C)C)c(O)c(O)c(C=O)c2c(O)c1-c1c(C)cc2c(C(C)C)c(O)c(O)c(C=O)c2c1O [Example 1, 2,2'-di-(1,6,7-trihydroxy-3-methyl-5-isopropyl-8-naphthaldehyde)]	640 (450-768) mg/kg
Cc1cc2c(C(C)C)c(O)c(O)c(C=O)c2c(O)c1-c1c(C)cc2c(C(C)C)c(O)c(O)c(C=O)c2c1O [known preparation, 2,2'-di-(1,6,7-trihydroxy-3-methyl-5-isopropyl-8-naphthaldehyde), reference compound]	383 (340-426) mg/kg

— patent US5059717A, “Method for purification of 2,2'-di(1,6,7-trihydroxy-3-methyl-5-isopropyl-8-naphthaldehyde)” (priority 1990, dated 1991)
